# Measured values taken from US8173657B2, “Imidazoquinoxaline compounds as immunomodulators” (Novartis AG, priority 2006, dated 2012).
# Legend:
# Format in all cases: cell-based
# [1] = biological target: T1, human TLR8 (Homo sapiens, UniProt Q9NR97); assay: TLR signaling, NF-kB luciferase reporter in transfected HEK293 cells; settings: HEK293 transfected with hTLR8, NF-kB luciferase; FIG. 1
# T1 construct: host or cells: HEK293 cells (ATCC, CRL-1573)
# T1 sequence (Q9NR97 27-1041): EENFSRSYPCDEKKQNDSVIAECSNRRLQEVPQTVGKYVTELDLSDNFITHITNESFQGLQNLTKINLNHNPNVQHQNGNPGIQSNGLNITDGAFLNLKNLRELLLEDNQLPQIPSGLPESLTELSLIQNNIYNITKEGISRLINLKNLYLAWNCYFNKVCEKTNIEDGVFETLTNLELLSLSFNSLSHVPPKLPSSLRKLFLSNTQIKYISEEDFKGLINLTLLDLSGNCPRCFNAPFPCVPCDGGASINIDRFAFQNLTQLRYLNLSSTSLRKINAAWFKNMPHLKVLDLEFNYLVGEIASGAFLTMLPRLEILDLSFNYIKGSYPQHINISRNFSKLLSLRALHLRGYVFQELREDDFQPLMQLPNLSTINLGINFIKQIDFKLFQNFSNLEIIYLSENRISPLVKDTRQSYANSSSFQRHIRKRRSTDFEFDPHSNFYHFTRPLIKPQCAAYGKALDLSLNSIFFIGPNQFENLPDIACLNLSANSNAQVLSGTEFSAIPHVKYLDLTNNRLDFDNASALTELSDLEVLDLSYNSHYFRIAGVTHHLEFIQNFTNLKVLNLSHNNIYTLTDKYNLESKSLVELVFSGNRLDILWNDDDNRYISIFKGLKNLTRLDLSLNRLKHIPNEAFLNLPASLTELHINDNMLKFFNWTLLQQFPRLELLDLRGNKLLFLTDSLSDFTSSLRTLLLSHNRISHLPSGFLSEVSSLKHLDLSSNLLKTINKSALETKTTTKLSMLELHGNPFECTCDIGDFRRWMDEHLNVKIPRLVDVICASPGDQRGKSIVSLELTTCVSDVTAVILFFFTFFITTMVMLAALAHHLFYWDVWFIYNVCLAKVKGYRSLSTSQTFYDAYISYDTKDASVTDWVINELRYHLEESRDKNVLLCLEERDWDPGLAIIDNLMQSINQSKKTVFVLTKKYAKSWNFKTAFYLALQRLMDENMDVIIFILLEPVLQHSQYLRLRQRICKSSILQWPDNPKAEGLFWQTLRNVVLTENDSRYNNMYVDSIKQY
# Experimental: (§1) HEK293 cells (ATCC, CRL-1573) are seeded in a T75 flask at 3×10^6 in 20 ml of DMEM supplemented with 0.1 mM nonessential amino acid, 1 mM sodium pyruvate, 2 mM L-glutamine, penicillin-streptomycin, and 10% FCS. After overnight culturing, the cells are transfected with 1) pNFkB-TA-luciferase reporter (0.4 ug) (BD clontech, Palo Alto, Calif.), and with 2) with pGL4.74 (0.01 ug) that carries a TK promoter, not responsive to NF-kB stimulation, and carries a Renilla luciferase gene, used as an internal control (Promega, Wis.), and 3), separately with a following TLR construct (10 ug): human TLR (hTLR) 7, hTLR8, mouse TLR7 (mTLR7) puno constructs (Invivogene, CA), using Fugene 6 transfection reagent (Roche). The transfected cells after 24 hours transfection are collected and seeded in a 96-well and flat-bottom plate (1×10^4 cell/well) plate, and stimulated with the test compounds at the following concentrations: 30, 10, 3, 1, 0.3, 0.1, 0.03 uM. After overnight compound stimulation, the cells are assayed for expression of fly and renilla luciferases using Dual-Luciferase Reporter Assay System (Promega, WI). NF-kb activation is directly proportional to relative fly luciferase units, which is measured against the internal control renilla luciferase units.
# [2] = biological target: T2, mouse TLR7 (Mus musculus, UniProt P58681); assay: as above; settings: HEK293 transfected with mTLR7, NF-kB luciferase; FIG. 1
# T2 construct: host or cells: HEK293 cells (ATCC, CRL-1573)
# T2 sequence (P58681 27-1050): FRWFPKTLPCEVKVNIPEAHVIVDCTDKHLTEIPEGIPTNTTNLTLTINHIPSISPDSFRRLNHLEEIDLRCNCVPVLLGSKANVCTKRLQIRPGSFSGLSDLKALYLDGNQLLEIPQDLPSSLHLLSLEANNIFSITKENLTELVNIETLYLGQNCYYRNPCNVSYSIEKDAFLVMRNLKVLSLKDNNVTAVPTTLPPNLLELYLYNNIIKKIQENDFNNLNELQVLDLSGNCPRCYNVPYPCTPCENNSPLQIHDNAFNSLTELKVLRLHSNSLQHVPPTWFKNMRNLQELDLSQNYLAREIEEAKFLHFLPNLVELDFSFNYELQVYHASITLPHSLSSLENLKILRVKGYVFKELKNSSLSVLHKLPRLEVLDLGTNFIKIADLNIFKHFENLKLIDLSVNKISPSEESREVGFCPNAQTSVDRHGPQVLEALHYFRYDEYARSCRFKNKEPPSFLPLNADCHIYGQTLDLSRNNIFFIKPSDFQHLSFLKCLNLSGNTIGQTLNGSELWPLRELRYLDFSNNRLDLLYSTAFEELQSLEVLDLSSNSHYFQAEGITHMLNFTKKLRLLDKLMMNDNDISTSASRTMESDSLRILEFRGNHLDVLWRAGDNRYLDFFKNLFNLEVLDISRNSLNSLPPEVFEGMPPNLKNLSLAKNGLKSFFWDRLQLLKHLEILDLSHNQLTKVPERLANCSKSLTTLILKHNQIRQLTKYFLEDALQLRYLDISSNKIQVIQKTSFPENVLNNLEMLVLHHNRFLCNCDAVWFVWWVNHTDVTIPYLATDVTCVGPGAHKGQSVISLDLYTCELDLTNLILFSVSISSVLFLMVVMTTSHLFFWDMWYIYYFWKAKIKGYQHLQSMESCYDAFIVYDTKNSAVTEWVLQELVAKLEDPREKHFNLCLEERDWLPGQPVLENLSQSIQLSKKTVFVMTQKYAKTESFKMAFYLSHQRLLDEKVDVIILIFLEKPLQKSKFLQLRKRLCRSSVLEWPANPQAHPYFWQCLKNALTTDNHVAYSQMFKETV
# Experimental: as §1
# [3] = biological target: T3, human TLR7 (Homo sapiens, UniProt Q9NYK1); assay: as above; settings: HEK293 transfected with hTLR7, NF-kB luciferase; FIG. 1
# T3 construct: host or cells: HEK293 cells (ATCC, CRL-1573)
# T3 sequence (Q9NYK1 27-1049): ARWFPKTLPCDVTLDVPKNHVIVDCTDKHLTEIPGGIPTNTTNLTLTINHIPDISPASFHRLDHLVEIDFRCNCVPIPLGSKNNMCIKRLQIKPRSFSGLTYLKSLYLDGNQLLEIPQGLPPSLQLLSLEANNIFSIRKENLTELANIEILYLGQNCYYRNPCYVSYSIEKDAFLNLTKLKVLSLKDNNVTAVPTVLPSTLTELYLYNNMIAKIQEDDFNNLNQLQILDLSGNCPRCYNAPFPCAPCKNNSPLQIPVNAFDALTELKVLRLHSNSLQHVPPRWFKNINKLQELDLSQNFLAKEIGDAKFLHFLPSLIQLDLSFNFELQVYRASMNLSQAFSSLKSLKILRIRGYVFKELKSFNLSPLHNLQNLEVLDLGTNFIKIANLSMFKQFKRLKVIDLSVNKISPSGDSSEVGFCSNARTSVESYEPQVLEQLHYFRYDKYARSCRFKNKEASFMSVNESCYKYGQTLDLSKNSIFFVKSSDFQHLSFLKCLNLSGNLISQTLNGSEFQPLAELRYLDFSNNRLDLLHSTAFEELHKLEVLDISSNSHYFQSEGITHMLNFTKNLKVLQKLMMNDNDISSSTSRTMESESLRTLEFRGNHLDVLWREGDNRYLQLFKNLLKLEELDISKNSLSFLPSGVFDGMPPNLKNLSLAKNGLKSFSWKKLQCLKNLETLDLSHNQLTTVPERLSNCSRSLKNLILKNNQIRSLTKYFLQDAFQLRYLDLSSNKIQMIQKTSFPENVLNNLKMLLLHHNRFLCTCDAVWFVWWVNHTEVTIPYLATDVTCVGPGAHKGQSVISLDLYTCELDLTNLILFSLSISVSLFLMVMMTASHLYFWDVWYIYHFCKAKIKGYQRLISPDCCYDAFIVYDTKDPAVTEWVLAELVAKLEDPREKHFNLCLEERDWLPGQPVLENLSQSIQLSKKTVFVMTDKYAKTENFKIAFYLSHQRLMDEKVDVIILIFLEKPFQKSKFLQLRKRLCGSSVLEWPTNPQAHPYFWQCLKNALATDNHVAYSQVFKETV
# Experimental: as §1
# [4] = tested on: IL-6; assay: Compound stimulation and multi-cytokine measurement (IL-6 production); settings: cytokine induction; cell type not stated at the result; read-out: EC50 value with respect to agonism of IL-6
# Experimental: (§2) Human PBMC (hPBMC) (at 1 million cells/ml) or mouse spleen cells (at 5 million cells/ml) or human monocytic THP-1 cells (at 1 million cells/ml) were mixed with tested compounds such as imidazoquinoxalines at titrated compound concentrations in the complete RPMI medium. After the cell cultures were incubated for 24 hours at 37° C., 5% CO2, the culture supernatant was collected and assayed for the secreted cytokines in the presence of the compounds. Human or mouse Beadlyte multi-cytokine flex kits (Upstate, Lake Placid, N.Y.) were used to measure the amount of the following cytokines: TNF-α and IL-6 according to the manufacturers instructions.
# Due to the agonist nature of the compounds tested, compound ranking is based on potency in cell-based screens for cytokine induction. Briefly, the EC50 of each compound for a given cytokine is calculated relative to a reference composition (i.e. LPS or other potent immune stimulator). This value is then used as the divisor of the maximum level of cytokine produced (pg/ml) in the assay. Five parameter curve fitting of cytokine dose response curves to different SMIPs for the indicated cell populations is used to calculate EC50. Rank-scoring of SMIP potency is calculated by dividing the maximum concentration of cytokine produced by the relative EC50 established for each compound indicated.
# [5] = tested on: TNF-α; assay: Compound stimulation and multi-cytokine measurement (TNF-α production); settings: cytokine induction; FIG. 2: human PBMC TNF-α production; read-out: EC50 value with respect to agonism of TNF-α
# Experimental: Human blood from one or multiple human donors were collected into the BD Vacutainer™ CPT tube with sodium citrate (BD, Franklin Lakes, N.J.), and spun for 20 minutes at 1600 g. After centrifugation, mononuclear cells in the top layer in the tubes were collected and then washed three times with PBS buffer. The washed cells were then reconstituted at a required cell concentration in complete RPMI containing 10% FBS plus 100 units/ml penicillin and 100 ug/ml streptomycin.
# as §2, with “Human or mouse Beadlyte multi-cytokine flex kits (Upstate, Lake Placid, N.Y.) were used to measure the amount of the following cytokines: TNF-α and IL-6 according to the manufacturers instructions.” left out
# Due to the agonist nature of the compounds tested, compound ranking is based on potency in cell-based screens for cytokine induction. Briefly, the EC50 of each compound for a given cytokine is calculated relative to a reference composition (i.e. LPS or other potent immune stimulator). […] Rank-scoring of SMIP potency is calculated by dividing the maximum concentration of cytokine produced by the relative EC50 established for each compound indicated.
SMILES,stimulatory activity with human TLR8 [1],reactivity for mouse TLR7 [2],stimulation of human TLR7 [3],EC50 [4] [µM],EC50 [5] [µM]
"CC(C)Cc1cn2c(n1)c(N)nc1ccccc12 [Example 3, 2-isobutylimidazo[1,2-a]quinoxalin-4-amine]",stimulatory activity,slightly more reactivity for mouse TLR7 than did the compound of Example 4,activity for stimulation,< 15,< 15
"CC(C)Cc1nc2c(N)nc3ccccc3n2c1CC(C)(C)O [Example 4, 1-(4-amino-2-isobutylimidazo[1,2-a]quinoxalin-1-yl)-2-methylpropan-2-ol]",little or no reactivity,–,–,< 15,< 15
